Molecular target: T1, human full-length MKNK1 (Homo sapiens, UniProt Q9BUB5, T385D)
T1 construct: GST (N); purchased Carna Biosciences 02-145; host or cells: insect cells (baculovirus expression system)
Experiment: MKNK1 kinase high ATP assay (TR-FRET)
Assay type: biochemical
Details: for IC50: Table 1, MKNK1 kinase high ATP assay, 2 mM ATP, read-out: MKNK1 IC50
Summary of the method: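 Full-length human MKNK1 (T385D) preincubated 15 min at 22 °C with compound in HEPES pH 7.5/MgCl2/DTT buffer; reaction with 2 mM ATP (final) and 0.06 μM biotinylated peptide (final), 30 min at 22 °C.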

T1 sequence (Q9BUB5 1-424 isoform Q9BUB5-2 T344D): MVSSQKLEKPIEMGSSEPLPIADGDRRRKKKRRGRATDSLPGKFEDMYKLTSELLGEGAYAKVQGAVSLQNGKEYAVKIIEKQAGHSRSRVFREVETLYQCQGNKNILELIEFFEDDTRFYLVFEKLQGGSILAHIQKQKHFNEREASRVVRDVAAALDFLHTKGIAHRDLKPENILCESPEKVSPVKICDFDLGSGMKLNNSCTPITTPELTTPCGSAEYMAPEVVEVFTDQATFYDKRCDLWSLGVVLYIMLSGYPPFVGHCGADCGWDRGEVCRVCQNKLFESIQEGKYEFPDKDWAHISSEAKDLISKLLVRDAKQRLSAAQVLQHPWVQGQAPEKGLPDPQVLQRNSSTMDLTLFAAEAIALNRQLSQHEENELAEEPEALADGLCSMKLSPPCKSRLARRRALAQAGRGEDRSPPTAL

Structure (SMILES) | IC50 [nM] | Activity-Ratio MKNK1 (Table 2, ratio of the IC50-value of an R-enantiomer and its corresponding S-enantiomer)
C[C@@H]1COCCN1C(=O)[C@H]1CCc2c(sc3ncnc(Nc4cc5cn[nH]c5cc4O[C@@H](C)CN)c23)C1 [Example 148, {(7S)-4-[(6-{[(2S)-1-Aminopropan-2-yl]oxy}-1H-indazol-5-yl)amino]-5,6,7,8-tetrahydro[1]benzothieno[2,3-d]pyrimidin-7-yl}[(3R)-3-methylmorpholin-4-yl]methanone] | 4.2 | –
C[C@H](CN)Oc1cc2[nH]ncc2cc1Nc1ncnc2sc3c(c12)CC[C@H](C(=O)N1CCOC[C@H]1C)C3 [Example 144, {(7S)-4-[(6-{[(2R)-1-Aminopropan-2-yl]oxy}-1H-indazol-5-yl)amino]-5,6,7,8-tetrahydro[1]benzothieno[2,3-d]pyrimidin-7-yl}[(3R)-3-methylmorpholin-4-yl]methanone] | 1 | –
COc1cc2[nH]ncc2cc1Nc1ncnc2sc3c(c12)CC[C@H](C(=O)N(C)C[C@H](C)OC)C3 [Example 282, (7S)-4-[(6-Methoxy-1H-indazol-5-yl)amino]-N-[(2S)-2-methoxypropyl]-N-methyl-5,6,7,8-tetrahydro[1]benzothieno[2,3-d]pyrimidine-7-carboxamide] | 0.5 | –
CN(C)C(=O)[C@H]1CCc2c(sc3ncnc(Nc4cc5cn[nH]c5cc4N(C)C)c23)C1 [Example 98, (7S)-4-{[6-(Dimethylamino)-1H-indazol-5-yl]amino}-N,N-dimethyl-5,6,7,8-tetrahydro[1]benzothieno[2,3-d]pyrimidine-7-carboxamide] | 0.2 | –
COc1cc2[nH]ncc2cc1Nc1ncnc2sc3c(c12)CC[C@H](C(=O)N1CCOC[C@@H]1C)C3 [Example 30, {(7S)-4-[(6-Methoxy-1H-indazol-5-yl)amino]-5,6,7,8-tetrahydro[1]benzothieno[2,3-d]pyrimidin-7-yl}[(3S)-3-methylmorpholin-4-yl]methanone] | 0.3 | –
C[C@H]1COCCN1C(=O)[C@H]1CCc2c(sc3ncnc(Nc4cc5cn[nH]c5cc4N4CCCC4)c23)C1 [Example 185, [(3S)-3-Methylmorpholin-4-yl][(7S)-4-{[6-(pyrrolidin-1-yl)-1H-indazol-5-yl]amino}-5,6,7,8-tetrahydro[1]benzothieno[2,3-d]pyrimidin-7-yl]methanone] | 0.6 | –
CCOc1cc2[nH]ncc2cc1Nc1ncnc2sc3c(c12)CC[C@H](C(=O)N1C[C@H](O)[C@@H](O)C1)C3 [Example 76, [(3S,4S)-3,4-Dihydroxypyrrolidin-1-yl]{(7S)-4-[(6-ethoxy-1H-indazol-5-yl)amino]-5,6,7,8-tetrahydro[1]benzothieno[2,3-d]pyrimidin-7-yl}methanone] | 0.4 | –
COCCN(C)C(=O)[C@H]1CCc2c(sc3ncnc(Nc4cc5cn[nH]c5cc4OC)c23)C1 [Example 217, (7S)—N-(2-Methoxyethyl)-4-[(6-methoxy-1H-indazol-5-yl)amino]-N-methyl-5,6,7,8-tetrahydro[1]benzothieno[2,3-d]pyrimidine-7-carboxamide] | 0.3 | –
COc1cc2[nH]ncc2cc1Nc1ncnc2sc3c(c12)CC[C@H](C(=O)N1C[C@@H](C)O[C@H](C)C1)C3 [Example 211, [(2R,6R)-2,6-Dimethylmorpholin-4-yl]{(7S)-4-[(6-methoxy-1H-indazol-5-yl)amino]-5,6,7,8-tetrahydro[1]benzothieno[2,3-d]pyrimidin-7-yl}methanone] | 0.2 | –
CN(C)C1CCN(C(=O)[C@H]2CCc3c(sc4ncnc(Nc5cc6cn[nH]c6cc5OCCN5CCCC5)c34)C2)CC1 [Example 138, [4-(Dimethylamino)piperidin-1-yl][(7S)-4-({6-[2-(pyrrolidin-1-yl)ethoxy]-1H-indazol-5-yl}amino)-5,6,7,8-tetrahydro[1]benzothieno[2,3-d]pyrimidin-7-yl]methanone] | 192 | –
COc1cc2[nH]ncc2cc1Nc1ncnc2sc3c(c12)CC[C@H](C(=O)N1CC2(COC2)C1)C3 [Example 32, {(7S)-4-[(6-Methoxy-1H-indazol-5-yl)amino]-5,6,7,8-tetrahydro[1]benzothieno[2,3-d]pyrimidin-7-yl}(2-oxa-6-azaspiro[3.3]hept-6-yl)methanone] | 1 | –
CN(C)C1CCN(c2cc3[nH]ncc3cc2Nc2ncnc3sc4c(c23)CC[C@H](C(=O)N2CCC2)C4)CC1 [Example 132, Azetidin-1-yl[(7S)-4-({6-[4-(dimethylamino)piperidin-1-yl]-1H-indazol-5-yl}amino)-5,6,7,8-tetrahydro[1]benzothieno[2,3-d]pyrimidin-7-yl]methanone] | 27.2 | –
CCOc1cc2[nH]ncc2cc1Nc1ncnc2sc3c(c12)CC[C@H](C(=O)N1CC(N2CCCCC2)C1)C3 [Example 175, {(7S)-4-[(6-Ethoxy-1H-indazol-5-yl)amino]-5,6,7,8-tetrahydro[1]benzothieno[2,3-d]pyrimidin-7-yl}[3-(piperidin-1-yl)azetidin-1-yl]methanone] | 0.2 | –
O=C([C@H]1CCc2c(sc3ncnc(Nc4ccc5[nH]ncc5c4)c23)C1)N1C[C@H]2C[C@@H]1CO2 [Example 11, [(7S)-4-(1H-Indazol-5-ylamino)-5,6,7,8-tetrahydro[I]benzothieno[2,3-d]pyrimidin-7-yl][(1R,4R)-2-oxa-5-azabicyclo[2.2.1]hept-5-yl]methanone] | 4 | –
CN(C)C(=O)[C@H]1CCc2c(sc3ncnc(Nc4cc5cn[nH]c5cc4OCC4CCOCC4)c23)C1 [Example 201, (7S)—N,N-Dimethyl-4-{[6-(tetrahydro-2H-pyran-4-ylmethoxy)-1H-indazol-5-yl]amino}-5,6,7,8-tetrahydro[1]benzothieno[2,3-d]pyrimidine-7-carboxamide] | 23.6 | –
CN(C)C(=O)[C@@H]1CCc2c(sc3ncnc(Nc4ccc5[nH]ncc5c4)c23)C1 [Example 2, (7R)-4-(1H-Indazol-5-ylamino)-N,N-dimethyl-5,6,7,8-tetrahydro[1]benzothieno[2,3-d]pyrimidine-7-carboxamide] | 118 | –
COc1cc2[nH]ncc2cc1Nc1ncnc2sc3c(c12)CC[C@H](C(=O)N1CCC(F)(F)C1)C3 [Example 208, (3,3-Difluoropyrrolidin-1-yl){(7S)-4-[(6-methoxy-1H-indazol-5-yl)amino]-5,6,7,8-tetrahydro[1]benzothieno[2,3-d]pyrimidin-7-yl}methanone] | 0.6 | –
CSc1cc2[nH]ncc2cc1Nc1ncnc2sc3c(c12)CC[C@H](C(=O)N1C[C@H](C)O[C@@H](C)C1)C3 [Example 246, [(2S,6S)-2,6-Dimethylmorpholin-4-yl][(7S)-4-{[6-(methylsulfanyl)-1H-indazol-5-yl]amino}-5,6,7,8-tetrahydro[1]benzothieno[2,3-d]pyrimidin-7-yl]methanone] | 5.3 | –
CSc1cc2[nH]ncc2cc1Nc1ncnc2sc3c(c12)CC[C@H](C(=O)N1CCOC[C@H]1C)C3 [Example 248, [(3R)-3-Methylmorpholin-4-yl][(7S)-4-{[6-(methylsulfanyl)-1H-indazol-5-yl]amino}-5,6,7,8-tetrahydro[1]benzothieno[2,3-d]pyrimidin-7-yl]methanone] | 2.2 | –
CSc1cc2[nH]ncc2cc1Nc1ncnc2sc3c(c12)CC[C@H](C(=O)N(C)CCC(F)(F)F)C3 [Example 249, (7S)—N-Methyl-4-{[6-(methylsulfanyl)-1H-indazol-5-yl]amino}-N-(3,3,3-trifluoropropyl)-5,6,7,8-tetrahydro[1]benzothieno[2,3-d]pyrimidine-7-carboxamide] | 2.3 | –
COc1cc2[nH]ncc2cc1Nc1ncnc2sc3c(c12)CC[C@H](C(=O)N1CCC(N(C)CCN(C)C)CC1)C3 [Example 47, (4-{[2-(Dimethylamino)ethyl](methyl)amino}piperidin-1-yl){(7S)-4-[(6-methoxy-1H-indazol-5-yl)amino]-5,6,7,8-tetrahydro[1]benzothieno[2,3-d]pyrimidin-7-yl}methanone] | 0.5 | –
C[C@@H]1CN(C(=O)[C@H]2CCc3c(sc4ncnc(Nc5cc6cn[nH]c6cc5Br)c34)C2)C[C@H](C)O1 [Example 234, {(7S)-4-[(6-Bromo-1H-indazol-5-yl)amino]-5,6,7,8-tetrahydro[1]benzothieno[2,3-d]pyrimidin-7-yl}[(2R,6S)-2,6-dimethylmorpholin-4-yl]methanone] | 3.4 | –
CSc1cc2[nH]ncc2cc1Nc1ncnc2sc3c(c12)CC[C@H](C(=O)N1CCOC[C@@H]1C)C3 [Example 254, [(3S)-3-Methylmorpholin-4-yl][(7S)-4-{[6-(methylsulfanyl)-1H-indazol-5-yl]amino}-5,6,7,8-tetrahydro[1]benzothieno[2,3-d]pyrimidin-7-yl]methanone] | 1.3 | –
CCC(=O)NCCOc1cc2[nH]ncc2cc1Nc1ncnc2sc3c(c12)CC[C@H](C(=O)N(C)C)C3 [Example 269, (7S)—N,N-Dimethyl-4-({6-[2-(propanoylamino)ethoxy]-1H-indazol-5-yl}amino)-5,6,7,8-tetrahydro[1]benzothieno[2,3-d]pyrimidine-7-carboxamide] | 1.3 | –
CCCOc1cc2[nH]ncc2cc1Nc1ncnc2sc3c(c12)CC[C@H](C(=O)N(C)C)C3 [Example 94, (7S)—N,N-Dimethyl-4-[(6-propoxy-1H-indazol-5-yl)amino]-5,6,7,8-tetrahydro[1]benzothieno[2,3-d]pyrimidine-7-carboxamide] | 4.8 | –
COc1cc2[nH]ncc2cc1Nc1ncnc2sc3c(c12)CC[C@H](C(=O)N1CCC1)C3 [Example 21, Azetidin-1-yl{(7S)-4-[(6-methoxy-1H-indazol-5-yl)amino]-5,6,7,8-tetrahydro[1]benzothieno[2,3-d]pyrimidin-7-yl}methanone] | 0.4 | 53.1
CCN(OC)C(=O)[C@H]1CCc2c(sc3ncnc(Nc4cc5cn[nH]c5cc4OC)c23)C1 [Example 197, (7S)—N-Ethyl-N-methoxy-4-[(6-methoxy-1H-indazol-5-yl)amino]-5,6,7,8-tetrahydro[1]benzothieno[2,3-d]pyrimidine-7-carboxamide] | 0.1 | –

Source: patent publication US20160297833A1, “THIENOPYRIMIDINES AS MKNK1 AND MKNK2 INHIBITORS” (BAYER PHARMA AKTIENGESELLSCHAFT, priority 2013, published 2016)
